For orientation: EC50 means the concentration needed to bring the measured effect to its halfway point.

The assay deals with human DP2 (Homo sapiens (Human), UniProt Q9Y5Y4). Nature of the assay: DP-2 Binding Inhibition Assay (3H-PGD2 binding to membranes of K562 cells expressing DP2). As to conditions: for EC50: inhibition of 3H-PGD2 binding; for relative activity of the enantiomers in the DP2 binding inhibition assay: assay described in Example A. As for the experimental part: DP-2 Binding Inhibition Assay
human DP2, sequence (Q9Y5Y4 whole entry): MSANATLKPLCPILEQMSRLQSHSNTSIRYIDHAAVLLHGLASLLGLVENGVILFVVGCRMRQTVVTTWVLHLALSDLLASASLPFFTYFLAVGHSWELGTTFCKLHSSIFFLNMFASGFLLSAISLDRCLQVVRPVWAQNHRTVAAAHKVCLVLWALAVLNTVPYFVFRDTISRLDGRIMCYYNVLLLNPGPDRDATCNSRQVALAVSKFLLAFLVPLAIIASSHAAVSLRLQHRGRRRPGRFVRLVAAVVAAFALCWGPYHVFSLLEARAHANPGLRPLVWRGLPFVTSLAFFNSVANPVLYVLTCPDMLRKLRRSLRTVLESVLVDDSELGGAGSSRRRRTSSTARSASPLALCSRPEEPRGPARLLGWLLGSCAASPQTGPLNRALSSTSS
The coding sequence of human DP2 was introduced into the human Leukemic cell line K562 by electroporation and stable clones expressing DP2 were obtained by limiting dilution followed by cell surface staining with a rat monoclonal antibody specific for human DP2. Membranes were prepared from one of these DP2 expressing clones and used to determine the ability of compounds of the present invention to inhibit binding of prostaglandin D2 (PGD2) to its receptor DP2 in the presence of one or more of the following serum protein concentrations, 0.1% BSA, 1% HSA or 4% HSA, by the following procedure. Membranes (1.25 μg/well for 0.1% BSA and 6 μg/well for 1% or 4% HSA) were mixed with ^3H-labeled PGD2 and various concentrations of test compounds in 150 μL of binding buffer (50 mM Tris-HCl, pH 7.4, 40 mM MgCl2, 0.1% bovine serum albumin, 0.1% NaN3) in 96-well U-bottom polypropylene plates. After incubation for 60 minutes at room temperature, the assay was transferred to a filtration plate (#MAFB; Millipore Corporation, Bedford, Mass.), and washed three times with binding buffer. Radioactivity was measured by a scintillation counter (TopCount; PerkinElmer Life Sciences, Boston, Mass.). Nonspecific binding was determined by incubations in the presence of 1 μM unlabeled PGD2 or 5 μM of a known DP2 antagonist. EC50 values for inhibition of binding were determined for each compound tested from the inflexion point of a standard 4-parameter logistical curve fitted to the values obtained.

[1] abbreviates: read-out: EC50 (nM) 4% HSA, 4% HSA.
[2] abbreviates: read-out: EC50 (Nm) 1% HSA, 1% HSA.

Where two headings read alike, the source gives them in different places.

In the case of `COc1cc(C2CC2)ccc1CCNC(=O)c1ccc(Oc2cc3c(cc2Cl)C(C(=O)O)CCO3)cc1` (single isomer, unassigned) [235 Enantiomer 1, 6-chloro-7-(4-(4-cyclopropyl-2-methoxyphenethylcarbamoyl)phenoxy)chroman-4-carboxylic acid], the “relative activity of the enantiomers in the DP2 binding inhibition assay” value is given as “less active than the sodium salt of Enantiomer 2”. Also, the EC50 (EC50 (nM) 4% HSA, 4% HSA) was over 5000 nM. For `O=C(NCCc1ccc(Cl)cc1)c1ccc(Oc2cc3c(cc2Cl)C(C(=O)O)CCO3)cc1` (single isomer, unassigned) [Example 11 Enantiomer 2, 6-Chloro-7-(4-(4-chlorophenethylcarbamoyl)phenoxy)chroman-4-carboxylic acid], the “relative activity of the enantiomers in the DP2 binding inhibition assay” value was “more potent DP2 binding enantiomer”. Further, the EC50 (EC50 (Nm) 1% HSA, 1% HSA) came to 9.3 nM. The same molecule had an EC50 (EC50 (nM) 4% HSA, 4% HSA) of 111 nM. With `O=C(NCCc1ccc(Cl)cc1Cl)c1ccc(Oc2cc3c(cc2Cl)C(C(=O)O)CCO3)cc1` (single isomer, unassigned) [Example 106 Enantiomer 1, 6-chloro-7-(4-(2,4-dichlorophenethylcarbamoyl)phenoxy)chroman-4-carboxylic acid], the “relative activity of the enantiomers in the DP2 binding inhibition assay” value is “less active than the sodium salt of Enantiomer 2”. The same molecule registered a half-maximal effective concentration (EC50) (EC50 (nM) 4% HSA, 4% HSA) of over 5000 nM.

The molecule `O=C(NC1CCC(c2ccccc2)CC1)c1ccc(Oc2cc3c(cc2Cl)C(C(=O)O)CCO3)cc1` (single isomer, unassigned) [Example 155 peak 1, 6-chloro-7-(4-(4-phenylcyclohexylcarbamoyl)phenoxy)chroman-4-carboxylic acid, isomer 1] came in with an EC50 (EC50 (nM) 4% HSA, 4% HSA) of 399 nM. Regarding `O=C(NC1CCC(c2ccccc2)CC1)c1ccc(Oc2cc3c(cc2Cl)C(C(=O)O)CCO3)cc1` (single isomer, unassigned) [Example 155 peak 2, 6-chloro-7-(4-(4-phenylcyclohexylcarbamoyl)phenoxy)chroman-4-carboxylic acid, isomer 2], for the setting “EC50 (nM) 4% HSA, 4% HSA”, the half-maximal effective concentration (EC50) came to 1670 nM. As to `COc1cc(C2CC2)ccc1CCNC(=O)c1ccc(Oc2cc3c(cc2Cl)[C@@H](C(=O)O)CCO3)cc1` (single isomer, unassigned; enantiomer 2) [235 Enantiomer 2], under setting [1], the EC50 was 17 nM. As to `N#Cc1cc2c(cc1Oc1ccc(C(=O)NCCc3ccccc3)cc1)OCCC2C(=O)O` (centres unmarked) [Example 5, 6-Cyano-7-(4-(phenethylcarbamoyl)phenoxy)chroman-4-carboxylic acid], the EC50 under setting [2] was 37.4 nM. For `N#Cc1cc2c(cc1Oc1ccc(C(=O)NC3Cc4ccccc4C3)cc1)OCCC2C(=O)O` (centres unmarked) [Example 6, 6-Cyano-7-(4-(2,3-dihydro-1H-inden-2-ylcarbamoyl)phenoxy)chroman-4-carboxylic acid], under setting [2], the 50% effective concentration (EC50) stood at 77.3 nM.

Regarding `N#Cc1cc2c(cc1Oc1ccc(C(=O)NOCc3ccc(Cl)cc3)cc1)OCCC2C(=O)O` (centres unmarked) [Example 7, 7-(4-(4-Chlorobenzyloxycarbamoyl)phenoxy)-6-cyanochroman-4-carboxylic acid], the EC50 under setting [2] was 19 nM.

As to `N#Cc1cc2c(cc1Oc1ccc(C(=O)Nc3ccc(Cl)c(Cl)c3)cc1)OCCC2C(=O)O` (centres unmarked) [Example 8, 6-Cyano-7-(4-(3,4-dichlorophenylcarbamoyl)phenoxy)chroman-4-carboxylic acid], the EC50 under setting [2] amounted to 16 nM. `O=C(NCCc1ccc(Cl)cc1)c1ccc(Oc2cc3c(cc2Cl)C(C(=O)O)CCO3)c([N+](=O)[O-])c1` (centres unmarked) [Example 9, 6-Chloro-7-(4-(4-chlorophenethylcarbamoyl)-2-nitrophenoxy)chroman-4-carboxylic acid]: under setting [2], the EC50 was 203 nM. Take `O=C(NCCc1ccc(Cl)cc1)c1ccc(Oc2cc3c(cc2Cl)C(C(=O)O)CCO3)cc1` (centres unmarked) [Example 10, 6-Chloro-7-(4-(4-chlorophenethylcarbamoyl)phenoxy)chroman-4-carboxylic acid]: the EC50 was 13.9 nM under setting [2] and 225 nM under setting [1]. On to `O=C(NCCc1ccccc1)c1ccc(Oc2cc3c(cc2Cl)C(C(=O)O)CCO3)cc1` (centres unmarked) [Example 12, Sodium 6-chloro-7-(4-(phenethylcarbamoyl)phenoxy)chroman-4-carboxylate], for which the EC50 (EC50 (nM) 4% HSA, 4% HSA) amounted to 794 nM.

Turning to `O=C(NCCCCc1ccccc1)c1ccc(Oc2cc3c(cc2Cl)C(C(=O)O)CCO3)cc1` (centres unmarked) [Example 13, Sodium 6-chloro-7-(4-(4-phenylbutylcarbamoyl)phenoxy)chroman-4-carboxylate], the EC50 under setting [1] was 405 nM. For the molecule `O=C(NCCCCc1cccc(Cl)c1)c1ccc(Oc2cc3c(cc2Cl)C(C(=O)O)CCO3)cc1` (centres unmarked) [Example 14, Sodium 6-chloro-7-(4-(4-(3-chlorophenyl)butylcarbamoyl)phenoxy)chroman-4-carboxylate], under setting [1], the EC50 amounted to 824 nM. In the case of `O=C(NCCCCc1ccc(Cl)cc1)c1ccc(Oc2cc3c(cc2Cl)C(C(=O)O)CCO3)cc1` (centres unmarked) [Example 15, Sodium 6-chloro-7-(4-(4-(4-chlorophenyl)butylcarbamoyl)phenoxy)chroman-4-carboxylate], the EC50 under setting [1] came to 746 nM. For `O=C(NCC/C=C\c1ccccc1Cl)c1ccc(Oc2cc3c(cc2Cl)C(C(=O)O)CCO3)cc1` (centres unmarked) [Example 16, Sodium (Z)-6-chloro-7-(4-(4-(2-chlorophenyl)but-3-enylcarbamoyl)phenoxy)chroman-4-carboxylate], the concentration for a half-maximal effect (EC50) under setting [1] came out at 318 nM. As to `O=C(NCCCCc1ccccc1Cl)c1ccc(Oc2cc3c(cc2Cl)C(C(=O)O)CCO3)cc1` (centres unmarked) [Example 17, Sodium 6-chloro-7-(4-(4-(2-chlorophenyl)butylcarbamoyl)phenoxy)chroman-4-carboxylate], the EC50 under setting [1] was determined as 395 nM. The same measure, in the same setting: the value for `O=C(NCC/C=C\c1ccc(Cl)cc1Cl)c1ccc(Oc2cc3c(cc2Cl)C(C(=O)O)CCO3)cc1` (centres unmarked) [Example 18, Sodium (Z)-6-chloro-7-(4-(4-(2,4-dichlorophenyl)but-3-enylcarbamoyl)phenoxy)chroman-4-carboxylate] was 502 nM; that for `O=C(NCCCCc1ccc(Cl)cc1Cl)c1ccc(Oc2cc3c(cc2Cl)C(C(=O)O)CCO3)cc1` (centres unmarked) [Example 19, Sodium 6-chloro-7-(4-(4-(2,4-dichlorophenyl)butylcarbamoyl)phenoxy)chroman-4-carboxylate] was 638 nM. For `Cc1ccccc1CCNC(=O)c1ccc(Oc2cc3c(cc2Cl)C(C(=O)O)CCO3)cc1` (centres unmarked) [Example 20, Sodium 6-chloro-7-(4-(2-methylphenethylcarbamoyl)phenoxy)chroman-4-carboxylate], the EC50 under setting [1] is 759 nM. Take `Cc1ccc(CCNC(=O)c2ccc(Oc3cc4c(cc3Cl)C(C(=O)O)CCO4)cc2)c(C)c1` (centres unmarked) [Example 21, Sodium 6-chloro-7-(4-(2,4-dimethylphenethylcarbamoyl)phenoxy)chroman-4-carboxylate]: under setting [1], the concentration for a half-maximal effect (EC50) was found to be 169 nM. On to `O=C(NCCc1ccc(Br)cc1)c1ccc(Oc2cc3c(cc2Cl)C(C(=O)O)CCO3)cc1` (centres unmarked) [Example 23, Sodium 7-(4-(4-bromophenethylcarbamoyl)phenoxy)-6-chlorochroman-4-carboxylate], for which the EC50 under setting [1] is 327 nM. Regarding `O=C(NCCc1ccc(C2CC2)cc1)c1ccc(Oc2cc3c(cc2Cl)C(C(=O)O)CCO3)cc1` (centres unmarked) [Example 24, Sodium 6-chloro-7-(4-(4-cyclopropylphenethylcarbamoyl)phenoxy)chroman-4-carboxylate], the EC50 under setting [1] was 482 nM.

`O=C(NCCC1CC1)c1ccc(Oc2cc3c(cc2Cl)C(C(=O)O)CCO3)cc1` (centres unmarked) [Example 25, Sodium 6-chloro-7-(4-(2-cyclopropylethylcarbamoyl)phenoxy)chroman-4-carboxylate]: under setting [1], the EC50 came out at 3330 nM. On the same count and under the same terms, the result for `O=C(NCCc1ccc(-c2ccccc2Cl)cc1)c1ccc(Oc2cc3c(cc2Cl)C(C(=O)O)CCO3)cc1` (centres unmarked) [Example 26, Sodium 6-chloro-7-(4-(2-(2′-chlorobiphenyl-4-yl)ethylcarbamoyl)phenoxy)chroman-4-carboxylate] reads 160 nM; that for `Cc1cc(Cl)ccc1CCNC(=O)c1ccc(Oc2cc3c(cc2Cl)C(C(=O)O)CCO3)cc1` (centres unmarked) [Example 27, Sodium 6-chloro-7-(4-(4-chloro-2-methylphenethylcarbamoyl)phenoxy)chroman-4-carboxylate], 216 nM; that for `O=C(NCCc1ccc(Br)cc1Cl)c1ccc(Oc2cc3c(cc2Cl)C(C(=O)O)CCO3)cc1` (centres unmarked) [Example 28, Sodium 7-(4-(4-bromo-2-chlorophenethylcarbamoyl)phenoxy)-6-chlorochroman-4-carboxylate], 123 nM. As to `O=C(NCCc1ccc(-c2ccccc2Cl)cc1Cl)c1ccc(Oc2cc3c(cc2Cl)C(C(=O)O)CCO3)cc1` (centres unmarked) [Example 29, Sodium 6-chloro-7-(4-(2-(2′,3-dichlorobiphenyl-4-yl)ethylcarbamoyl)phenoxy)chroman-4-carboxylate], the EC50 under setting [1] is 137 nM. As to `O=C(NCCc1ccc(C2CC2)cc1Cl)c1ccc(Oc2cc3c(cc2Cl)C(C(=O)O)CCO3)cc1` (centres unmarked) [Example 30, Sodium 6-chloro-7-(4-(2-chloro-4-cyclopropylphenethylcarbamoyl)phenoxy)chroman-4-carboxylate], the EC50 under setting [1] is 301 nM.

These data come from patent US9556139B2, “6-substituted phenoxychroman carboxylic acid derivatives” (Array BioPharma Inc., priority 2008, dated 2017).
